What all share (assay type): in vivo
Test [1] deals with Diamond Backmoth (Plutella xylostella). The test can be described thus: Diamond backmoth leaf-dip test on cabbage leaves. The note with it: 3rd instar larvae on dipped cabbage leaves, 72 hours after treatment, read-out: mortality in comparison with untreated controls. The protocol: B.1 Diamond Backmoth (Plutella xylostella)
The active compound was dissolved at the desired concentration in a mixture of 1:1 (vol:vol) distilled water: acteon. Surfactant (Alkamuls® EL 620) was added at a rate of 0.1% (vol/vol). The test solution was prepared at the day of use.
Leaves of cabbage were dipped in test solution and air-dried. Treated leaves were placed in petri dishes lined with moist filter paper and inoculated with ten 3rd instar larvae. Mortality was recorded 72 hours after treatment. Feeding damages were also recorded using a scale of 0-100%.

Test [2] has as its system Southern Armyworm (Spodoptera eridiana). The test can be described thus: Southern armyworm foliar spray test on lima bean plants. The note with it: 96 h, larvae on sprayed lima bean plants, 4 days after treatment, read-out: mortality in comparison with untreated controls. The protocol:
B.2 Southern Armyworm (Spodoptera eridiana)
(§1) The active compounds were formulated in cyclohexanone as a 10,000 ppm solution supplied in tubes. The tubes were inserted into an automated electrostatic sprayer equipped with an atomizing nozzle and they served as stock solutions for which lower dilutions were made in 50% acetone:50% water (v/v). A nonionic surfactant (Kinetic®) was included in the solution at a volume of 0.01% (v/v).
Lima bean plants (variety Sieva) were grown 2 plants to a pot and selected for treatment at the 1st true leaf stage. Test solutions were sprayed onto the foliage by an automated electrostatic plant sprayer equipped with an atomizing spray nozzle. The plants were dried in the sprayer fume hood and then removed from the sprayer. Each pot was placed into perforated plastic bags with a zip closure. About 10 to 11 armyworm larvae were placed into the bag and the bags zipped closed. Test plants were maintained in a growth room at about 25° C. and about 20-40% relative humidity for 4 days, avoiding direct exposure to fluorescent light (24 hour photoperiod) to prevent trapping of heat inside the bags. Mortality and reduced feeding were assessed 4 days after treatment, compared to untreated control plants.

The test system of test [3] is Boll Weevil (Anthonomus grandis). The test can be described thus: Boll weevil microtiter plate insect diet test. To be noted: 120 h, egg and larval mortality, 5 days, read-out: mortality in comparison with untreated controls. The method, then:
B.3 Boll Weevil (Anthonomus grandis)
For evaluating control of boll weevil (Anthonomus grandis) the test unit consisted of 24-well-microtiter plates containing an insect diet and 20-30 A. grandis eggs.
The compounds were formulated using a solution containing 75% v/v water and 25% v/v DMSO. Different concentrations of formulated compounds were sprayed onto the insect diet at 20 μl, using a custom built micro atomizer, at two replications.
After application, microtiter plates were incubated at about 23±1° C. and about 50±5% relative humidity for 5 days. Egg and larval mortality was then visually assessed.

In test [4] the test system is Tobacco Budworm (Heliothis virescens). Briefly: Tobacco budworm microtiter plate insect diet test. To be noted: 120 h, egg and larval mortality, 5 days, read-out: mortality in comparison with untreated controls. The method, then:
B.4 Tobacco Budworm (Heliothis virescens) I
For evaluating control of tobacco budworm (Heliothis virescens) the test unit consisted of 96-well-microtiter plates containing an insect diet and 15-25 H. virescens eggs.
The compounds were formulated using a solution containing 75% v/v water and 25% v/v DMSO. Different concentrations of formulated compounds were sprayed onto the insect diet at 10 μl, using a custom built micro atomizer, at two replications.
After application, microtiter plates were incubated at about 28±1° C. and about 80±5% relative humidity for 5 days. Egg and larval mortality was then visually assessed.

Test [5] has as its system Green Peach Aphid (Myzus persicae). Briefly: Green peach aphid spray test on bell pepper plants. To be noted: 120 h, aphids on sprayed bell pepper plants, after 5 days, read-out: mortality in comparison with untreated controls.
Source text: B.6 Green Peach Aphid (Myzus persicae)
as §1
Bell pepper plants at the first true-leaf stage were infested prior to treatment by placing heavily infested leaves from the main colony on top of the treatment plants. Aphids were allowed to transfer overnight to accomplish an infestation of 30-50 aphids per plant and the host leaves were removed. The infested plants were then sprayed by an automated electrostatic plant sprayer equipped with an atomizing spray nozzle. The plants were dried in the sprayer fume hood, removed, and then maintained in a growth room under fluorescent lighting in a 24-hr photoperiod at about 25° C. and about 20-40% relative humidity. Aphid mortality on the treated plants, relative to mortality on untreated control plants, was determined after 5 days.

Each structure is given as a SMILES string. Bounds are passed on as bounds.

By mortality is commonly meant the percentage killed. Take `Cc1cc(Cl)cc(C(=O)NOCC(=O)N(C)C)c1NC(=O)c1ccc(C(F)(F)F)cc1-c1ncccc1Cl` [compound 1-1, 5-chloro-2-[2-(3-chloro-pyridin-2-yl)-4-trifluoromethyl-benzoylamino]-N-dimethylcarbamoylmethoxy-3-methyl-benzamide]: the mortality at 500 ppm in test [1] and in test [2] was at least 75% in each case. The mortality at 2500 ppm in test [3], in test [4] and in test [5] was above 75% in each case.
